According to ChEMBL document CHEMBL3351824, “Synthesis and biological evaluation of novel tacrine derivatives and tacrine-coumarin hybrids as cholinesterase inhibitors” (J Med Chem, 2014):

Key:
[1] = biological target: Cholinesterase (Homo sapiens, UniProt P06276)
Description: Inhibition of human BuChE pre-incubated for 5 mins before butylthiocholine substrate addition by Ellman's method

[2] = biological target: T1, Acetylcholinesterase (Homo sapiens, UniProt P22303)
Description: Inhibition of human recombinant AChE pre-incubated for 5 mins before acetylthiocholine substrate addition by Ellman's method

[3] = biological target: T1, Acetylcholinesterase; remark: listed apart in the source
Description: Inhibition of human recombinant AChE assessed as dissociation constant for enzyme-inhibitor complex by Lineweaver-Burk plot

[4] = biological target: T1, Acetylcholinesterase; remark: listed apart in the source
Description: Inhibition of human recombinant AChE assessed as dissociation constant for enzyme-inhibitor-substrate complex by Lineweaver-Burk plot

Sequence of Cholinesterase (P06276 whole entry): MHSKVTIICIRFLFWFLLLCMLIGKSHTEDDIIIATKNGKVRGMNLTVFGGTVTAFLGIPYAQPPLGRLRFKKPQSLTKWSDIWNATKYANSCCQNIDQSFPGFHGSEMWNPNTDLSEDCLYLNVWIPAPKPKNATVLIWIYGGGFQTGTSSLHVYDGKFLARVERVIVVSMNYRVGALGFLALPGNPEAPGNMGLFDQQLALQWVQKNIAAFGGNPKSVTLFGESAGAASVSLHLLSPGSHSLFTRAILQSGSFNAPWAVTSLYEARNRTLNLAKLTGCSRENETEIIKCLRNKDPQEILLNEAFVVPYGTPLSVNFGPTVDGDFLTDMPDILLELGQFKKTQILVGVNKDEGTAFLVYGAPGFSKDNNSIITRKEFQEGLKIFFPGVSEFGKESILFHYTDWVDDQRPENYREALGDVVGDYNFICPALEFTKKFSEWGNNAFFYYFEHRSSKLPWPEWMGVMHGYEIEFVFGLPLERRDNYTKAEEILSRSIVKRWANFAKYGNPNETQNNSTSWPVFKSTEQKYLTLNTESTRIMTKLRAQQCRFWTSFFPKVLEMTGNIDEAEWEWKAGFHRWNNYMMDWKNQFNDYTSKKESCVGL
T1 sequence (P22303 whole entry): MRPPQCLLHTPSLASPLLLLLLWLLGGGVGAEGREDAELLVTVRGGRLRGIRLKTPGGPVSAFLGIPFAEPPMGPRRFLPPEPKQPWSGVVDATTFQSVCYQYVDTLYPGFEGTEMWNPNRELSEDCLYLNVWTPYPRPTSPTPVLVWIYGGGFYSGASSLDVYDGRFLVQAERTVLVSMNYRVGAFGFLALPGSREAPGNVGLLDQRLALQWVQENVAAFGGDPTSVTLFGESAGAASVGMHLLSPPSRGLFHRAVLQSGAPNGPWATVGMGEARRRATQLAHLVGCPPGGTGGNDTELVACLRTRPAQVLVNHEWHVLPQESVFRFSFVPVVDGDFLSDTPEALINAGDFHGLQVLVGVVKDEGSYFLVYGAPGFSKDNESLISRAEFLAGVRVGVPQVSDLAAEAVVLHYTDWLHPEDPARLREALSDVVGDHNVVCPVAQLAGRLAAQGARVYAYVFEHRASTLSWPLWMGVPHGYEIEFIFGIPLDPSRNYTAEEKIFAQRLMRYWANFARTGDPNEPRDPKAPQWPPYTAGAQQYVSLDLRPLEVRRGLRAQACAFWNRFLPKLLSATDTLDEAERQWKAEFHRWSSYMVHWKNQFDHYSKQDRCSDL

Structure (SMILES)	IC50 [1]	IC50 [2]	Ki [3]	Ki [4]
CCN(CCC(=O)NCCNc1c2c(nc3ccccc13)CCCC2)C1CCCCC1	765 nM	233 nM		
CCN(CCC(=O)NCCCNc1c2c(nc3ccccc13)CCCC2)C1CCCCC1	267 nM	26.3 nM	80.4 nM	78.9 nM
CCN(CCC(=O)NCCCCNc1c2c(nc3ccccc13)CCCC2)C1CCCCC1	228 nM	94.2 nM	199 nM	328 nM
CN(CCC(=O)NCCNc1c2c(nc3ccccc13)CCCC2)C1CCCCC1	2030 nM	580 nM		
CN(CCC(=O)NCCCNc1c2c(nc3ccccc13)CCCC2)C1CCCCC1	2380 nM	398 nM		
CN(CCC(=O)NCCCCNc1c2c(nc3ccccc13)CCCC2)C1CCCCC1	2230 nM	104 nM		
O=C(Cc1cc(=O)oc2cc(O)ccc12)NCCNc1c2c(nc3ccccc13)CCCC2	12600 nM	2910 nM		
O=C(Cc1cc(=O)oc2cc(O)ccc12)NCCCNc1c2c(nc3ccccc13)CCCC2	827 nM	277 nM		
O=C(Cc1cc(=O)oc2cc(O)ccc12)NCCCCNc1c2c(nc3ccccc13)CCCC2	328 nM	15.4 nM	4.1 nM	23.4 nM
O=C(Cc1cc(=O)oc2cc(O)ccc12)NNC(=S)Nc1c2c(nc3ccccc13)CCCC2	1420 nM	8170 nM	1940 nM	92800 nM
O=C(Cc1cc(=O)oc2cc(O)ccc12)N/N=C1\SCC(=O)N1c1c2c(nc3ccccc13)CCCC2	5620 nM	15700 nM	2360 nM	65300 nM
